Measurements: ChEMBL document CHEMBL4507296 (2021)

What was measured:
[1] = tested on: Mast/stem cell growth factor receptor Kit (Homo sapiens), P10721 [L576P]; conditions: Compound concentration 1000.0 nM
[2] = tested on: Tyrosine-protein kinase ABL1 (Homo sapiens), P00519 [Y253F]; conditions: Compound concentration 1000.0 nM
[3] = target: Homeodomain-interacting protein kinase 3 (Homo sapiens) (UniProt Q9H422); conditions: Compound concentration 1000.0 nM
[4] = target: cAMP-dependent protein kinase catalytic subunit beta (Homo sapiens) (UniProt P22694); conditions: Compound concentration 1000.0 nM
[5] = target: Calcium/calmodulin-dependent protein kinase type IV (Homo sapiens) (UniProt Q16566); conditions: Compound concentration 1000.0 nM
[6] = target: Phosphatidylinositol 4,5-bisphosphate 3-kinase catalytic subunit beta isoform (Homo sapiens) (UniProt P42338); conditions: Compound concentration 1000.0 nM
[7] = tested on: Receptor-type tyrosine-protein kinase FLT3 (Homo sapiens), P36888 [UNDEFINED MUTATION]; conditions: Compound concentration 1000.0 nM
[8] = tested on: Epidermal growth factor receptor (Homo sapiens), P00533 [UNDEFINED MUTATION]; conditions: Compound concentration 1000.0 nM
[9] = target: Dual specificity mitogen-activated protein kinase kinase 2 (Homo sapiens) (UniProt P36507); conditions: Compound concentration 1000.0 nM
[10] = target: Tyrosine-protein kinase SYK (Homo sapiens) (UniProt P43405); conditions: Compound concentration 1000.0 nM
[11] = target: Ribosomal protein S6 kinase alpha-1 (Homo sapiens) (UniProt Q15418); conditions: Compound concentration 1000.0 nM
[12] = target: Mitogen-activated protein kinase kinase kinase 1 (Homo sapiens) (UniProt Q13233); conditions: Compound concentration 1000.0 nM
[13] = target: cGMP-dependent protein kinase 1 (Homo sapiens) (UniProt Q13976); conditions: Compound concentration 1000.0 nM
[14] = target: Misshapen-like kinase 1 (Homo sapiens) (UniProt Q8N4C8); conditions: Compound concentration 1000.0 nM
[15] = target: Tyrosine-protein kinase ITK/TSK (Homo sapiens) (UniProt Q08881); conditions: Compound concentration 1000.0 nM
[16] = target: Macrophage-stimulating protein receptor (Homo sapiens) (UniProt Q04912); conditions: Compound concentration 1000.0 nM
[17] = target: Calcium/calmodulin-dependent protein kinase kinase 2 (Homo sapiens) (UniProt Q96RR4); conditions: Compound concentration 1000.0 nM
[18] = target: Mitogen-activated protein kinase kinase kinase 4 (Homo sapiens) (UniProt Q9Y6R4); conditions: Compound concentration 1000.0 nM
[19] = target: Calcium/calmodulin-dependent protein kinase type 1 (Homo sapiens) (UniProt Q14012); conditions: Compound concentration 1000.0 nM
[20] = target: Dual specificity protein kinase CLK1 (Homo sapiens) (UniProt P49759); conditions: Compound concentration 1000.0 nM
[21] = target: RAC-beta serine/threonine-protein kinase (Homo sapiens) (UniProt P31751); conditions: Compound concentration 1000.0 nM
[22] = target: Serine/threonine-protein kinase LATS2 (Homo sapiens) (UniProt Q9NRM7); conditions: Compound concentration 1000.0 nM
[23] = target: Serine/threonine-protein kinase N1 (Homo sapiens) (UniProt Q16512); conditions: Compound concentration 1000.0 nM
[24] = tested on: Leucine-rich repeat serine/threonine-protein kinase 2 (Homo sapiens), Q5S007 [G2019S]; conditions: Compound concentration 1000.0 nM
[25] = target: Calcium/calmodulin-dependent protein kinase type II subunit alpha (Homo sapiens) (UniProt Q9UQM7); conditions: Compound concentration 1000.0 nM
[26] = tested on: ALK tyrosine kinase receptor (Homo sapiens), Q9UM73 [L1196M]; conditions: Compound concentration 1000.0 nM
[27] = target: T1, Alpha-2B adrenergic receptor (Homo sapiens) (UniProt P18089); conditions: Compound concentration 10.0 uM
T1 sequence (whole entry): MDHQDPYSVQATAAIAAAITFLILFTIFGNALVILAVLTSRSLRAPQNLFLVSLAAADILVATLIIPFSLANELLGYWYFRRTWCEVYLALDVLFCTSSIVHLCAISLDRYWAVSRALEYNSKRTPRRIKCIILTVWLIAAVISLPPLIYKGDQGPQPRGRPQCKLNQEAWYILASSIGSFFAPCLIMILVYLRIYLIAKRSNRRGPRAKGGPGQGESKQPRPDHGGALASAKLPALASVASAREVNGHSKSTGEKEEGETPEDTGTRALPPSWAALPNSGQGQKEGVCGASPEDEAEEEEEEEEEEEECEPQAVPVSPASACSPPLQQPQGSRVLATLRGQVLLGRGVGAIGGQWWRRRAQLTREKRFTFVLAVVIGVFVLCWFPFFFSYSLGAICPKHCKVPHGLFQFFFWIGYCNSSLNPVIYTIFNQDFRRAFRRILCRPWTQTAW

[28] = tested on: Tyrosine-protein kinase ABL1 (Homo sapiens), P00519 [E255K]; conditions: Compound concentration 1000.0 nM
[29] = target: Cyclin-dependent kinase 4 (Homo sapiens) (UniProt P11802); conditions: Compound concentration 1000.0 nM
[30] = target: Phosphatidylinositol 4-kinase beta (Homo sapiens) (UniProt Q9UBF8); conditions: Compound concentration 1000.0 nM
[31] = target: Cyclin-dependent kinase-like 3 (Homo sapiens) (UniProt Q8IVW4); conditions: Compound concentration 1000.0 nM
[32] = target: Kappa-type opioid receptor (Rattus norvegicus) (UniProt P34975); assay: k-Opioid (rat) CEREP ligand profiling; conditions: Compound concentration 10.0 uM
[33] = target: 1-phosphatidylinositol 3-phosphate 5-kinase (Homo sapiens) (UniProt Q9Y2I7); conditions: Compound concentration 1000.0 nM
[34] = target: Dual specificity mitogen-activated protein kinase kinase 3 (Homo sapiens) (UniProt P46734); conditions: Compound concentration 1000.0 nM
[35] = target: Serine/threonine-protein kinase PRP4 homolog (Homo sapiens) (UniProt Q13523); conditions: Compound concentration 1000.0 nM
[36] = tested on: Epidermal growth factor receptor (Homo sapiens), P00533 [G719C]; conditions: Compound concentration 1000.0 nM
[37] = target: Ribosomal protein S6 kinase alpha-5 (Homo sapiens) (UniProt O75582); conditions: Compound concentration 1000.0 nM
[38] = target: Calcium/calmodulin-dependent protein kinase type II subunit delta (Homo sapiens) (UniProt Q13557); conditions: Compound concentration 1000.0 nM

Serine/threonine-protein kinase PRP4 homolog (Homo sapiens), sequence (Q13523 whole entry): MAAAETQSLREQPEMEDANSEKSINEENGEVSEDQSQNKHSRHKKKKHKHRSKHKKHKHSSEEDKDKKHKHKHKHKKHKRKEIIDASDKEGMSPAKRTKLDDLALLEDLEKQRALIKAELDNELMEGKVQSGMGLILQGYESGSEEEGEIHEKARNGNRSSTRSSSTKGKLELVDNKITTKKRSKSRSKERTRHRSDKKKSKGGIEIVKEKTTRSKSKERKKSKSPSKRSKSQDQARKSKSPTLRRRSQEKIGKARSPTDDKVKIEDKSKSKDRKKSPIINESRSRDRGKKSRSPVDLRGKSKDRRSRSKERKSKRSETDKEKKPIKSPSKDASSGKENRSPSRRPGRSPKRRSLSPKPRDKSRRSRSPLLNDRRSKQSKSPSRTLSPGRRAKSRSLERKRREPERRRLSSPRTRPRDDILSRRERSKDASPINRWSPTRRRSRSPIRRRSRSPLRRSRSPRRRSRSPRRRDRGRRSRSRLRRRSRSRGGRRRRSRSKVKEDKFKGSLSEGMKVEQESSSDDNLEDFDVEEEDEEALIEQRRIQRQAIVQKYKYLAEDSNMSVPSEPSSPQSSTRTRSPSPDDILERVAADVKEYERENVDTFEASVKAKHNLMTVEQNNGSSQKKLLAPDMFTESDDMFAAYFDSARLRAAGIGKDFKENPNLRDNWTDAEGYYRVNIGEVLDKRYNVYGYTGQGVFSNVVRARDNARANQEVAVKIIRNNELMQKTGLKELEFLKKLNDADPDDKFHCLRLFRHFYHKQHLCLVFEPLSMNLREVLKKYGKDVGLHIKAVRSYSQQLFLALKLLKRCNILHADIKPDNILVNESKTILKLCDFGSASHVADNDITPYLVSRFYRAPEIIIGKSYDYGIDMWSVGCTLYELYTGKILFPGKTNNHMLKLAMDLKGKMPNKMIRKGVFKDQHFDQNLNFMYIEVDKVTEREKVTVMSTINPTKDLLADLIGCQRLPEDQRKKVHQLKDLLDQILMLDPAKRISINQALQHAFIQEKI
Calcium/calmodulin-dependent protein kinase type 1 (Homo sapiens), sequence (Q14012 whole entry, looked up): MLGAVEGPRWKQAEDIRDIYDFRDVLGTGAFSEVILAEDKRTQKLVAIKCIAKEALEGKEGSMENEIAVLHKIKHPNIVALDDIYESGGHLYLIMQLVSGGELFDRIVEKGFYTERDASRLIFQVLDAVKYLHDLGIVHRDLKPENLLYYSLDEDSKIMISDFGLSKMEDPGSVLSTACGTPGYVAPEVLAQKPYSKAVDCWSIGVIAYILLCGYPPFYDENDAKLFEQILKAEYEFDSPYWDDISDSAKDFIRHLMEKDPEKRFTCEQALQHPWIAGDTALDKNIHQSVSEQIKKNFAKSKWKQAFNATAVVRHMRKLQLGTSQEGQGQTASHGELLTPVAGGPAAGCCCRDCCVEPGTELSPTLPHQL
cGMP-dependent protein kinase 1 (Homo sapiens), sequence (Q13976 whole entry): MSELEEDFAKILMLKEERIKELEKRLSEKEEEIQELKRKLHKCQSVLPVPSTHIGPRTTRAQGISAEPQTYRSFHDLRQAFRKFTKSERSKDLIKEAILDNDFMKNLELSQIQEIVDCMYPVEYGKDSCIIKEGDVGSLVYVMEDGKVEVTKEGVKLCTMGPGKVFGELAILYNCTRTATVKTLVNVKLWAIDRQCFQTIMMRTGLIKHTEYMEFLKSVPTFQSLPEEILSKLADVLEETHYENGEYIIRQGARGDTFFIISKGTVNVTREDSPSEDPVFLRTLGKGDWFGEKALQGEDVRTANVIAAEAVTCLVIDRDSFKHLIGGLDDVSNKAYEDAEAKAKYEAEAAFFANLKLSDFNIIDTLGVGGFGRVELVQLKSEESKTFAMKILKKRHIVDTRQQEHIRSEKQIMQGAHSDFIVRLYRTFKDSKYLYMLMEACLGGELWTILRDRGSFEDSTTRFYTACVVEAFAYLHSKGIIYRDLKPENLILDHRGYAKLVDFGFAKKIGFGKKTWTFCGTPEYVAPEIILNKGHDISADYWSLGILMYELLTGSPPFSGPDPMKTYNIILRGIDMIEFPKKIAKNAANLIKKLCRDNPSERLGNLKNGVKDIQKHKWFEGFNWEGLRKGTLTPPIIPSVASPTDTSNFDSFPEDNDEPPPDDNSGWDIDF
Mitogen-activated protein kinase kinase kinase 1 (Homo sapiens), sequence (Q13233 whole entry): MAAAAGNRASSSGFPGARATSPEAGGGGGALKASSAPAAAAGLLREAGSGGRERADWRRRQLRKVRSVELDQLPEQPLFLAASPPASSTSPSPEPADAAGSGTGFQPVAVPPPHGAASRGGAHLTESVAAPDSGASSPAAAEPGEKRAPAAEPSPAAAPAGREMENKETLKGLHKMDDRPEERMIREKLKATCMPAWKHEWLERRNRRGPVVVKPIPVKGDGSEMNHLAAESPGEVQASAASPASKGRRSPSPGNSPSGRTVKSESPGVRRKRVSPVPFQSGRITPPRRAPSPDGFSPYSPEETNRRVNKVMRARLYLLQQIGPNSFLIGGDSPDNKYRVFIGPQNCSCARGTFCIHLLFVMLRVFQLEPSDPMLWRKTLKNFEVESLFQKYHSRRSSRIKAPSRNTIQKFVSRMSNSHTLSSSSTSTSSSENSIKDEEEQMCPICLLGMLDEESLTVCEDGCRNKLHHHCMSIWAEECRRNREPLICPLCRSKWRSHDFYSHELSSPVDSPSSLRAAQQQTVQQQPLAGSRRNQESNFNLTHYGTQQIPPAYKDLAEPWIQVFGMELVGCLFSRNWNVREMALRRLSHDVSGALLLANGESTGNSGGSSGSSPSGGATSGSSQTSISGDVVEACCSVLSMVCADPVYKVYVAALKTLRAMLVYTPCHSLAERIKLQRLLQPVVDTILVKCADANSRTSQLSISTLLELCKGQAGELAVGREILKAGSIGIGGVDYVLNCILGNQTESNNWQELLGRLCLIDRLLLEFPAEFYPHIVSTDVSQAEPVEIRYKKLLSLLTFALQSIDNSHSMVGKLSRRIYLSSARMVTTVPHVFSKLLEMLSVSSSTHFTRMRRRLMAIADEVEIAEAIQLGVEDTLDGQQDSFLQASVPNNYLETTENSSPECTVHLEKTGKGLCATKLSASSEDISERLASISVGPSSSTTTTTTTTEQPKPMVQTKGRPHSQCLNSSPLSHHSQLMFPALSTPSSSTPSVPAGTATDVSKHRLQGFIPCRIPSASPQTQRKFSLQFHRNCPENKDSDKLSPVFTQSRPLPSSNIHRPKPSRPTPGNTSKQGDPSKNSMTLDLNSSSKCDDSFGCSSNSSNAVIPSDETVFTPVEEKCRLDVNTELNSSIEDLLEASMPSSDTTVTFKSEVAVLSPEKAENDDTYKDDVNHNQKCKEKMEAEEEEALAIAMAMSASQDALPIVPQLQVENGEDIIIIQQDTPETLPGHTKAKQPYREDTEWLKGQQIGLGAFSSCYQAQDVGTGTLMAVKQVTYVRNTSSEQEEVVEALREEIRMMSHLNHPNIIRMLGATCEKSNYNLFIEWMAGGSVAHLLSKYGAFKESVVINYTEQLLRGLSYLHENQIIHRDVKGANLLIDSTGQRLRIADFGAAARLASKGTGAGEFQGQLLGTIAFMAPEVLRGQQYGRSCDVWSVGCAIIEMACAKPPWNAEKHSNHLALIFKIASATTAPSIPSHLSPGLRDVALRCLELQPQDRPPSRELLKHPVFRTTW
Ribosomal protein S6 kinase alpha-1 (Homo sapiens), sequence (Q15418 whole entry): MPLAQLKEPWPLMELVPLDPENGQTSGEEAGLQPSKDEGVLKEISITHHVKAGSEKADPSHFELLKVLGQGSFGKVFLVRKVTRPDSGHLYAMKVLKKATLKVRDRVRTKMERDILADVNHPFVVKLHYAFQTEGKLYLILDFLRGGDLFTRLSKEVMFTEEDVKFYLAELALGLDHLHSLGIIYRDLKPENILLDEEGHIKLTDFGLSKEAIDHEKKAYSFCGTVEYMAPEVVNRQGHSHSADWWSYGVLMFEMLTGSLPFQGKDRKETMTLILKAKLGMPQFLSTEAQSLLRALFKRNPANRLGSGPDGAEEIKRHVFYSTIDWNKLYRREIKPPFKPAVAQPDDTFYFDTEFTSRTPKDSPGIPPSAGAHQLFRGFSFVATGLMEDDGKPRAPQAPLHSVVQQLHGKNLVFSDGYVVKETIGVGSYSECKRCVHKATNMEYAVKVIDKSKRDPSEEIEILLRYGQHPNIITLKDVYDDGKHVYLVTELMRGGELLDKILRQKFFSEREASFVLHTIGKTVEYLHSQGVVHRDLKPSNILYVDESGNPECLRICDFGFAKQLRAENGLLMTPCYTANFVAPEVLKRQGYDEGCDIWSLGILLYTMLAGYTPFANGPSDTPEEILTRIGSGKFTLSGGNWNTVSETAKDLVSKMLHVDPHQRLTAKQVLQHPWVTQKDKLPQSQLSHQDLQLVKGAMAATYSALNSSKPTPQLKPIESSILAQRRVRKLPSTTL
Cyclin-dependent kinase 4 (Homo sapiens), sequence (P11802 whole entry): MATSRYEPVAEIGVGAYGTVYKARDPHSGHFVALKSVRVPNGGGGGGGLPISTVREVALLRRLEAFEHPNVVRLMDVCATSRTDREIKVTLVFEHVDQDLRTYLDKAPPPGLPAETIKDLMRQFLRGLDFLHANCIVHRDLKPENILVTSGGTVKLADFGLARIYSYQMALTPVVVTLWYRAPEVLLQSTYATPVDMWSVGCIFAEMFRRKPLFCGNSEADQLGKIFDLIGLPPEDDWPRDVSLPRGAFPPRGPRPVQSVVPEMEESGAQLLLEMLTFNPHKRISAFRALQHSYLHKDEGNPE
Calcium/calmodulin-dependent protein kinase type IV (Homo sapiens), sequence (Q16566 whole entry, canonical isoform): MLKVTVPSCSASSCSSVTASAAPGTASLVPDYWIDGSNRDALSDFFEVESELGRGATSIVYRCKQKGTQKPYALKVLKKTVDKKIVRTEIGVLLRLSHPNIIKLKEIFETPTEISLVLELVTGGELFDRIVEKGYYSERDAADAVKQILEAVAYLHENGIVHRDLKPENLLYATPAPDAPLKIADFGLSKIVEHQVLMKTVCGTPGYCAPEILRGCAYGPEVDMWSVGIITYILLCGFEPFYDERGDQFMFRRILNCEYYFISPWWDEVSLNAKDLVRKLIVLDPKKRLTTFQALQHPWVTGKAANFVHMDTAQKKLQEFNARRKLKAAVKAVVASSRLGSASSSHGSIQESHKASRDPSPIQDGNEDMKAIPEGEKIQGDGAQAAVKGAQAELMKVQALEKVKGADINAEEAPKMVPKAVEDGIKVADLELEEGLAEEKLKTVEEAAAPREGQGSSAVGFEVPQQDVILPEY

C[C@H](c1ccc(F)cc1)N(Cc1cccc(C(=O)O)c1)C(=O)c1cnc2ccccc2c1 [PF-05105679]
inactive: residual activity [1] 94% | residual activity [2] 100% | residual activity [3] 100% | residual activity [4] 82% | residual activity [5] 100% | residual activity [6] 100% | residual activity [7] 99% | residual activity [8] 100% | residual activity [9] 100% | residual activity [10] 87% | residual activity [11] 100% | residual activity [12] 100% | residual activity [13] 100% | residual activity [14] 100% | residual activity [15] 84% | residual activity [16] 100% | residual activity [17] 95% | residual activity [18] 100% | residual activity [19] 100% | residual activity [20] 91% | residual activity [21] 87% | residual activity [22] 64% | residual activity [23] 100% | residual activity [24] 100% | residual activity [25] 97% | residual activity [26] 76% | inhibition [27] 20.2% | residual activity [28] 100% | residual activity [29] 100% | residual activity [30] 98% | residual activity [31] 64% | inhibition [32] 20% | residual activity [33] 100% | residual activity [34] 91% | residual activity [35] 100% | residual activity [36] 90% | residual activity [37] 100% | residual activity [38] 100%
